From paper PMC10139140, “Synthesis of Novel 2-(Cyclopentylamino)thiazol-4(5H)-one Derivatives with Potential Anticancer, Antioxidant, and 11β-HSD Inhibitory Activities” (International Journal of Molecular Sciences, 2023)
Entries after “also recorded” stand apart in the source; their conditions may differ.

What was measured:
BJ cells [1] = experiment: Reactive nitrogen species level (DAF-2 diacetate probe), BJ; type: cell-based; details: 500 µM, 72 h
Procedure: (§1) The BJ (CRL-2522), Caco-2 (HTB-37), PANC-1 (CRL-1469), U-118 MG (HTB-15), SK-MEL-30 (ACC 151), and MDA-MB-231 (HTB-26) cell lines were purchased from ATCC (Manassas, VA, USA) or DSMZ (Braunschweig, GERMANY). Cells were cultured in accordance with manufacturers' recommendations in a DMEM, MEM, or RPMI-1640 (Sigma, Saint Louis, MO, USA; Gibco, Waltham, MA, USA), supplemented with 10% FBS, except for Caco-2 (20%) (Thermo Fisher Scientific, Waltham, MA, USA) and 1% antibiotic mix solution (penicillin, streptomycin; Thermo Fisher Scientific, Waltham, MA, USA) in a humidified atmosphere with 5% CO2 at 37 °C. All cell lines were cultured in T75 cell culture flasks or cell culture dishes to reach 80–90% confluency and seeded at a standard density of 5 × 10^3 cells/0.32 cm^2, except for BJ cells at 2 × 10^3 cells/0.32 cm^2.
(§2) The assay was performed following previously reported method. […] Measurement of intracellular superoxide, nitric oxide, and free thiol levels were assessed with the use of fluorogenic probes: dihydroethidium (Cayman Chemical, Ann Arbor, MI, USA, #12013), DAF-2 diacetate (Cayman Chemical, Ann Arbor, MI, USA, #85165), and Thiol Tracker Violet (Thermo Scientific, Waltham, MA, USA, #T10095). […] Quantifications were taken with a BioTek–Synergy H1 microplate reader, and the results are presented as mean values + SD.

U-118 MG cells [2] = experiment: Reactive oxygen species level (dihydroethidium probe), U-118 MG; type: cell-based; details: 500 µM, 72 h
Procedure: as §1
(§3) The assay was performed following previously reported method. The cells (BJ, Caco-2, PANC-1, U-118 MG, SK-MEL-30, and MDA-MB-231) were seeded at an established density into 96-well black plates. Measurement of intracellular superoxide, nitric oxide, and free thiol levels were assessed with the use of fluorogenic probes: dihydroethidium (Cayman Chemical, Ann Arbor, MI, USA, #12013), DAF-2 diacetate (Cayman Chemical, Ann Arbor, MI, USA, #85165), and Thiol Tracker Violet (Thermo Scientific, Waltham, MA, USA, #T10095). After compound treatment (72 h), the cells were probed at a final concentration of 5 µM each for 15 min at 37 °C. Quantifications were taken with a BioTek–Synergy H1 microplate reader, and the results are presented as mean values + SD.

Caco-2 cells = experiment: Reactive oxygen species level (dihydroethidium probe), Caco-2; type: cell-based, human; details: Caco-2, 500 µM, 72 h
Procedure: as §1, §3

U-118 MG cells [3] = experiment: Reactive nitrogen species level (DAF-2 diacetate probe), U-118 MG; type: cell-based; details: 500 µM, 72 h
Procedure: as §1, §3

MDA-MB-231 cells [4] = experiment: Reactive nitrogen species level (DAF-2 diacetate probe), MDA-MB-231; type: cell-based, human; details: MDA-MB-231, 500 µM, 72 h
Procedure: as §1, §2

BJ cells [5] = experiment: Reactive oxygen species level (dihydroethidium probe), BJ; type: cell-based; details: 500 µM, 72 h
Procedure: as §1, §3

MDA-MB-231 cells [6] = experiment: Reactive oxygen species level (dihydroethidium probe), MDA-MB-231; type: cell-based, human; details: MDA-MB-231, 500 µM, 72 h
Procedure: as §1, §3

PANC-1 cells = experiment: Reactive nitrogen species level (DAF-2 diacetate probe), PANC-1; type: cell-based, human; details: PANC-1, 500 µM, 72 h
Procedure: as §1, §2

[7] = test system: all cell lines tested (BJ, Caco-2, PANC-1, U-118 MG, SK-MEL-30, MDA-MB-231); experiment: Reduced glutathione level (Thiol Tracker Violet probe), all cell lines tested; type: cell-based; details: 500 µM, 72 h
Procedure: as §1, §2

Row | SMILES | level of reactive oxygen species (ROS) (U-118 MG cells [2]) | level of reactive oxygen species (ROS) (Caco-2 cells) | level of reactive nitrogen species (RNS) (U-118 MG cells [3]) | level of reactive oxygen species (ROS) (BJ cells [5]) | level of reactive oxygen species (ROS) (MDA-MB-231 cells [6]) | also measured
1 | CCC1SC(NC2CCCC2)=NC1=O (centres unmarked) [Compound 3b, 2-(cyclopentylamino)-5-ethylthiazol-4(5H)-one] | high increase | high increase |  |  |  | level of reactive nitrogen species (RNS) (BJ cells [1]): increase
2 | CC1SC(NC2CCCC2)=NC1=O (centres unmarked) [Compound 3a, 2-(cyclopentylamino)-5-methylthiazol-4(5H)-one] | high increase |  | increase |  |  | level of reactive nitrogen species (RNS) (MDA-MB-231 cells [4]): increase
3 | O=C1N=C(NC2CCCC2)SC12CCC2 [Compound 3i, 6-(cyclopentylamino)-5-thia-7-azaspiro[3.4]oct-6-en-8-one] | high increase | high increase |  | increase | increase | 
4 | CC(C)C1SC(NC2CCCC2)=NC1=O (centres unmarked) [Compound 3d, 2-(cyclopentylamino)-5-isopropylthiazol-4(5H)-one] |  |  | increase |  |  | 
5 | CC1(C)SC(NC2CCCC2)=NC1=O [Compound 3e, 2-(cyclopentylamino)-5,5-dimethylthiazol-4(5H)-one] | high increase | high increase |  |  |  | level of reactive nitrogen species (RNS) (PANC-1 cells): increase
6 | O=C1N=C(NC2CCCC2)SC1c1ccc(Br)cc1 (centres unmarked) [Compound 3g, 2-(cyclopentylamino)-5-(4-bromophenyl)thiazol-4(5H)-one] |  | high increase |  | increase | increase | level of reduced glutathione [7]: low level; also recorded: especially strong reduction
7 | CCCC1SC(NC2CCCC2)=NC1=O (centres unmarked) [Compound 3c, 2-(cyclopentylamino)-5-propylthiazol-4(5H)-one] |  | high increase |  |  |  | 
8 | O=C1N=C(NC2CCCC2)SC12CCCCC2 [Compound 3h, 2-(cyclopentylamino)-1-thia-3-azaspiro[4.5]dec-2-en-4-one] | high increase |  | increase | increase | increase | 
